We go through eleven molecules from ChEMBL document CHEMBL5107949, “Design, synthesis, and antibacterial activity of N-(trifluoromethyl)phenyl substituted pyrazole derivatives” (RSC Med Chem, 2021).

As usually defined, the MIC is the least concentration at which growth counts as inhibited. As usually defined, the IC50 is the concentration at which inhibition is half-maximal.

Each structure is given as a SMILES string. ≈ marks a conversion by molar mass, not a printed value.

Data set [1] has as its system Staphylococcus aureus. Nature of the data set: Antibacterial activity against antibiotic susceptible Staphylococcus aureus ATCC 25923 assessed as inhibition of bacterial growth by CLSI protocol based broth microdilution method. The class given is functional. (Broth dilution looks for growth in wells or tubes with falling amounts of substance.)
In data set [2] the test system is Staphylococcus aureus. Nature of the data set: Antibacterial activity against antibiotic resistant Staphylococcus aureus ATCC 33591 assessed as inhibition of bacterial growth by CLSI protocol based broth microdilution method. The class given is functional.
The subject of data set [3] is Staphylococcus aureus. In words: Antibacterial activity against antibiotic resistant Staphylococcus aureus ATCC 33592 assessed as inhibition of bacterial growth by CLSI protocol based broth microdilution method. Type of data set: functional.
The test system of data set [4] is Staphylococcus aureus. Nature of the data set: Antibacterial activity against antibiotic resistant Staphylococcus aureus BAA-2312 assessed as inhibition of bacterial growth by CLSI protocol based broth microdilution method. Type of data set: functional.
Data set [5] relates to Staphylococcus aureus. Nature of the data set: Antibacterial activity against antibiotic resistant Staphylococcus aureus ATCC 700699 assessed as inhibition of bacterial growth by CLSI protocol based broth microdilution method. The class given is functional.
The subject of data set [6] is Staphylococcus epidermidis. In words: Antibacterial activity against antibiotic resistant Staphylococcus epidermidis ATCC 700296 assessed as inhibition of bacterial growth by CLSI protocol based broth microdilution method. Type of data set: functional.
Data set [7] relates to Bacillus subtilis. In words: Antibacterial activity against antibiotic resistant Bacillus subtilis ATCC 6623 assessed as inhibition of bacterial growth by CLSI protocol based broth microdilution method. The class given is functional.
Data set [8] has as its system Enterococcus faecalis. Nature of the data set: Antibacterial activity against antibiotic susceptible Enterococcus faecalis ATCC 29212 assessed as inhibition of bacterial growth by CLSI protocol based broth microdilution method. The class given is functional.
Data set [9] deals with Enterococcus faecium. In words: Antibacterial activity against vancomycin resistant Enterococcus faecium ATCC 700221 assessed as inhibition of bacterial growth by CLSI protocol based broth microdilution method. Type of data set: functional.
Data set [10] is described as follows: Cytotoxicity against human HEK293 cells reduction in cell viability incubated for 24 hrs by resazurin cell viability assay. The class given is toxicity, cell-based.

For the molecule `CC(C)c1ccc(NCc2cn(-c3ccc(C(F)(F)F)cc3)nc2-c2ccc(C(=O)O)cc2)cc1`, the MIC was 3.12 µg/mL (≈ 6.51 µM) in data set [1]; 12.5 µg/mL (≈ 26.1 µM) in data set [2]; 3.12 µg/mL (≈ 6.51 µM) in data set [3]; 6.25 µg/mL (≈ 13 µM) in data set [4]; 3.12 µg/mL (≈ 6.51 µM) in data set [5]; 12.5 µg/mL (≈ 26.1 µM) in [6]. Moreover, the MIC in data set [7] is 3.12 µg/mL (≈ 6.51 µM); in [8] it was 6.25 µg/mL (≈ 13 µM); in [9], 3.12 µg/mL (≈ 6.51 µM).

`O=C(O)c1ccc(-c2nn(-c3ccc(C(F)(F)F)cc3)cc2CNc2cccc(Cl)c2F)cc1`: the MIC is 3.12 µg/mL (≈ 6.37 µM) in [1]; 6.25 µg/mL (≈ 12.8 µM) in data set [2]; 3.12 µg/mL (≈ 6.37 µM) in [3]; 6.25 µg/mL (≈ 12.8 µM) in [4]; 3.12 µg/mL (≈ 6.37 µM) in data set [5]; 12.5 µg/mL (≈ 25.5 µM) in [6]. Also, the MIC stood at 1.56 µg/mL (≈ 3.18 µM) in data set [7], 12.5 µg/mL (≈ 25.5 µM) in data set [8] and 6.25 µg/mL (≈ 12.8 µM) in data set [9].

On to `O=C(O)c1ccc(-c2nn(-c3ccc(C(F)(F)F)cc3)cc2CNc2ccc(F)cc2)cc1`, for which the MIC in data set [1] was 25 µg/mL (≈ 54.9 µM); in data set [2] it was 25 µg/mL (≈ 54.9 µM); in data set [3], 25 µg/mL (≈ 54.9 µM); in data set [4], 25 µg/mL (≈ 54.9 µM); in data set [5], 12.5 µg/mL (≈ 27.4 µM); in data set [6] it was 50 µg/mL (≈ 110 µM). For the same molecule, the MIC in data set [7] and in [9] was 25 µg/mL (≈ 54.9 µM) each time.

`O=C(O)c1ccc(-c2nn(-c3ccc(C(F)(F)F)cc3)cc2CNc2ccc(Cl)cc2)cc1`: the MIC in data set [1] is 6.25 µg/mL (≈ 13.2 µM); in [2], 6.25 µg/mL (≈ 13.2 µM); in data set [3], 6.25 µg/mL (≈ 13.2 µM); in data set [4], 12.5 µg/mL (≈ 26.5 µM); in data set [5] it was 6.25 µg/mL (≈ 13.2 µM); in data set [6], 12.5 µg/mL (≈ 26.5 µM). In addition, the values for the MIC in [7], in data set [8] and in [9] were 6.25 µg/mL (≈ 13.2 µM), 12.5 µg/mL (≈ 26.5 µM) and 6.25 µg/mL (≈ 13.2 µM), respectively.

In the case of `Cc1ccc(NCc2cn(-c3ccc(C(F)(F)F)cc3)nc2-c2ccc(C(=O)O)cc2)cc1Cl`, the MIC in [1] was found to be 3.12 µg/mL (≈ 6.42 µM); in [2], 6.25 µg/mL (≈ 12.9 µM); in [3], 3.12 µg/mL (≈ 6.42 µM); in data set [4], 3.12 µg/mL (≈ 6.42 µM); in data set [5], 1.56 µg/mL (≈ 3.21 µM); in data set [6], 6.25 µg/mL (≈ 12.9 µM). Moreover, the MIC in data set [7] is 1.56 µg/mL (≈ 3.21 µM); in data set [8] it was 6.25 µg/mL (≈ 12.9 µM); in [9], 3.12 µg/mL (≈ 6.42 µM). In data set [10], this molecule displayed an IC50 at 24 h greater than 12 µg/mL.

Take `O=C(O)c1ccc(-c2nn(-c3ccc(C(F)(F)F)cc3)cc2CNc2ccc([N+](=O)[O-])cc2)cc1`: the MIC in data set [1] came out at 25 µg/mL (≈ 51.8 µM); in [2] it was 25 µg/mL (≈ 51.8 µM); in data set [3], 12.5 µg/mL (≈ 25.9 µM); in data set [4] it was 25 µg/mL (≈ 51.8 µM); in [5], 12.5 µg/mL (≈ 25.9 µM); in data set [6], 25 µg/mL (≈ 51.8 µM). For the same molecule, the MIC in data set [7] came out at 12.5 µg/mL (≈ 25.9 µM); in [8], 25 µg/mL (≈ 51.8 µM); in data set [9], 25 µg/mL (≈ 51.8 µM).

On to `COc1ccc(NCc2cn(-c3ccc(C(F)(F)F)cc3)nc2-c2ccc(C(=O)O)cc2)cc1C(F)(F)F`, for which the MIC is 12.5 µg/mL (≈ 23.3 µM) in data set [1]; 25 µg/mL (≈ 46.7 µM) in data set [2]; 12.5 µg/mL (≈ 23.3 µM) in data set [3]; 12.5 µg/mL (≈ 23.3 µM) in [4]; 6.25 µg/mL (≈ 11.7 µM) in data set [5]; 25 µg/mL (≈ 46.7 µM) in data set [6]. The MIC worked out at 6.25 µg/mL (≈ 11.7 µM) in data set [7], 25 µg/mL (≈ 46.7 µM) in data set [8] and 12.5 µg/mL (≈ 23.3 µM) in data set [9].

For `O=C(O)c1ccc(-c2nn(-c3ccc(C(F)(F)F)cc3)cc2CNc2ccc(F)c(Cl)c2)cc1`, the minimal inhibitory concentration (MIC) in data set [1] worked out at 3.12 µg/mL (≈ 6.37 µM); in data set [2], 12.5 µg/mL (≈ 25.5 µM); in [3], 3.12 µg/mL (≈ 6.37 µM); in data set [4], 6.25 µg/mL (≈ 12.8 µM); in [5] it was 3.12 µg/mL (≈ 6.37 µM); in [6] it was 12.5 µg/mL (≈ 25.5 µM). The values for the MIC in [7], in data set [8] and in [9] were 3.12 µg/mL (≈ 6.37 µM), 12.5 µg/mL (≈ 25.5 µM) and 6.25 µg/mL (≈ 12.8 µM), respectively.

Consider `O=C(O)c1ccc(-c2nn(-c3ccc(C(F)(F)F)cc3)cc2CNc2ccc(F)c([N+](=O)[O-])c2)cc1`, for which the MIC turned out to be 12.5 µg/mL (≈ 25 µM) in data set [1]; 25 µg/mL (≈ 50 µM) in data set [2]; 12.5 µg/mL (≈ 25 µM) in data set [3]; 25 µg/mL (≈ 50 µM) in data set [4]; 6.25 µg/mL (≈ 12.5 µM) in data set [5]; 25 µg/mL (≈ 50 µM) in data set [6]. For the same molecule, the MIC in data set [7] came to 12.5 µg/mL (≈ 25 µM).

`O=C(O)c1ccc(-c2nn(-c3ccc(C(F)(F)F)cc3)cc2CNc2cccc(F)c2)cc1`: the MIC in data set [1] was determined as 25 µg/mL (≈ 54.9 µM); in data set [2], 25 µg/mL (≈ 54.9 µM); in data set [3], 25 µg/mL (≈ 54.9 µM); in data set [4], 25 µg/mL (≈ 54.9 µM); in data set [5] it was 12.5 µg/mL (≈ 27.4 µM); in [6], 25 µg/mL (≈ 54.9 µM). Also, the results for the MIC in [7], in data set [8] and in data set [9] were 12.5 µg/mL (≈ 27.4 µM), 25 µg/mL (≈ 54.9 µM) and 12.5 µg/mL (≈ 27.4 µM), respectively.

As to `O=C(O)c1ccc(-c2nn(-c3ccc(C(F)(F)F)cc3)cc2CNc2cccc(Br)c2)cc1`, the MIC in data set [1] was 3.12 µg/mL (≈ 6.04 µM); in [2], 3.12 µg/mL (≈ 6.04 µM); in [3], 6.25 µg/mL (≈ 12.1 µM); in [4] it was 6.25 µg/mL (≈ 12.1 µM); in data set [5], 3.12 µg/mL (≈ 6.04 µM); in data set [6] it was 12.5 µg/mL (≈ 24.2 µM). Further, the MIC was found to be 6.25 µg/mL (≈ 12.1 µM) in data set [7], 12.5 µg/mL (≈ 24.2 µM) in data set [8] and 6.25 µg/mL (≈ 12.1 µM) in [9].
